Measured values as given in patent US20070191493A1, “Use of n-alkanols as activators of the cftr channel” (priority 2003, published 2007).
Values belong to the compound of their own block, whether it stands above or below them.

Tests used:
[1] = biological target: T1, CFTR channel (Homo sapiens, UniProt P13569); assay: 125I radioactive iodide efflux in CHO-CFTR(+) cells; assay type: cell-based; parameters: expressed in transfected cells; host or cells: CHO (Chinese hamster ovary) cells, CHO-CFTR(+); conditions: for activation of CFTR (125I efflux), in words: n-alkanols 1 mM, FSK 1 μM, A23187 2 μM, α-GA 10 and 100 μM; for effect of inhibitor on activated 125I efflux: CHO-CFTR(+) cells stimulated by octan-1-ol 1 mM, FSK 1 μM or both, glibenclamide 100 μM, H-89 30 μM, PKC inhibitor; for order of activation of CFTR by n-alkanols: 1 mM, 125I efflux or patch-clamp
T1 sequence (P13569 whole entry): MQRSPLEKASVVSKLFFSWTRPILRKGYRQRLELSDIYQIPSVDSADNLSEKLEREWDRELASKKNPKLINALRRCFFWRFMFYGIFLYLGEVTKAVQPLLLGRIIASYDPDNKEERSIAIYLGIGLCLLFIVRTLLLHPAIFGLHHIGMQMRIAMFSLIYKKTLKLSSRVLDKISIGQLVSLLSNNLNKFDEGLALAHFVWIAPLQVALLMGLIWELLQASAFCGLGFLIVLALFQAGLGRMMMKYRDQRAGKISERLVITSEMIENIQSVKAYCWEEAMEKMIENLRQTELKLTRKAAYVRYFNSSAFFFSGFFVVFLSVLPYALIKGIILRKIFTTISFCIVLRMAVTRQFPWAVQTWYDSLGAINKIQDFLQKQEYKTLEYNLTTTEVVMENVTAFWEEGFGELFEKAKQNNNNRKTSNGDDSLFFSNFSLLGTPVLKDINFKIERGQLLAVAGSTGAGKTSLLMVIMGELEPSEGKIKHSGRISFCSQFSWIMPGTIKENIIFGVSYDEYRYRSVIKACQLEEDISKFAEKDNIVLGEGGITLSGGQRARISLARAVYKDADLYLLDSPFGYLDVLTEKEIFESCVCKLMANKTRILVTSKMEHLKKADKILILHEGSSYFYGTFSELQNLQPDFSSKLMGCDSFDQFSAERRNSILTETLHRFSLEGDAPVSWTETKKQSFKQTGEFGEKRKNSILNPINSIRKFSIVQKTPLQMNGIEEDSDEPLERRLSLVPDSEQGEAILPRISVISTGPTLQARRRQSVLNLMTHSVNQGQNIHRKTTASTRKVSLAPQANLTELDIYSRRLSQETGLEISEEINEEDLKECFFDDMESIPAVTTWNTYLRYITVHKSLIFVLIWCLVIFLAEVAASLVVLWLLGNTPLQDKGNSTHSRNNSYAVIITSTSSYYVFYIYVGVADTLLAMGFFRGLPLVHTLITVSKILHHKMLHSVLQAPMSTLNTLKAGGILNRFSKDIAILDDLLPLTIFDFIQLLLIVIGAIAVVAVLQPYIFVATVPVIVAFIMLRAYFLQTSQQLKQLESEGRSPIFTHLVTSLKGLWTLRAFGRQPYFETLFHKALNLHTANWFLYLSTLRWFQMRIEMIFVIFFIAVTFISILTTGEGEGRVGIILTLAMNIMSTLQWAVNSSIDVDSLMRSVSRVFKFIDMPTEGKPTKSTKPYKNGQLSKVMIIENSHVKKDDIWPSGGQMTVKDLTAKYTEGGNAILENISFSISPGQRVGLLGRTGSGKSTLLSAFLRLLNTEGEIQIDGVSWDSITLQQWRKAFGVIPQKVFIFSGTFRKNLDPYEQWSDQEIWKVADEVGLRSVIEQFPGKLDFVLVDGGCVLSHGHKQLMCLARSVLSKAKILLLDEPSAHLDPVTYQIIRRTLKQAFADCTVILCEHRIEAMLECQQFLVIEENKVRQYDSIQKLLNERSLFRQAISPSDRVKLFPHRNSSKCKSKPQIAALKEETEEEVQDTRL
Description: The cells are cultured in 24-well plates with a dilution to 1/10 after passage. […] The operation is repeated every 30 s for 2 to 6 min. […] All the samples are counted in a gamma counter (Kontron). The precipitated proteins are solubilized in 0.1N NaOH and quantified using a calorimetric test.
(§1) The tracer contained in the cell layer at the beginning of the efflux is calculated as the sum of the samples and of the extracts counted. The efflux curves are constructed by expressing the percentage of the content remaining in the cell layer (I %) with respect to time. The stimulated or nonstimulated efflux rate constants (k, min^−1) are determined by smoothing the efflux curves to a monoexponential function I %=100*exp(−kt) using a linear regression of the neperian logarithm of the data, k is used to calculate the iodide released into the medium with respect to time. The hypothesis is made that, in the presence of a stimulator, the efflux is the sum of two iodide effluxes occurring in parallel: a basal efflux and a stimulated efflux characterized, respectively, by the constants kb and ks. The total net efflux is then described by the equation It^%=100*(1−exp(−ktt)) where kt is the sum of kb and ks. Finally, ks calculated as kt−kb is used to establish a dose-response relationship for antagonists. The data is expressed as means ±SD, and the t-test is used to determine the significances. The concentration-response curves for agonists or for antagonists are smooth using the hyperbolic equation Y=Ymax*X/(EC5C+X), where Y is the response. Y begins at the basal level and progresses to the plateau (Ymax), X is the concentration and the half-effect values (EC are calculated using GraphPad Prism v3.0 (GraphPad software)).

[2] = tested on: CHO-CFTR(-) cells; assay: 125I iodide efflux in CHO-CFTR(-) control cells that do not express CFTR; assay type: cell-based, Chinese hamster; conditions: octan-1-ol 0.1 to 5 mM, FSK 5 μM, A23187 2 μM
[3] = biological target: T2, human CFTR channel endogenously expressed in Calu-3 (Homo sapiens, UniProt P13569); assay: iodide efflux in Calu-3 human bronchial epithelial cells; assay type: cell-based; conditions: Calu-3; 1 hour treatment; glibenclamide 100 μM, DIDS 500 μM
T2 construct: human pulmonary epithelial cells endogenously expressing the CFTR channel; host or cells: Calu-3 human pulmonary epithelial cells
T2 sequence (P13569 whole entry): as above
Description: (§2) The CFTR studies are also carried out on Calu-3 cells (ATCC No. HTB-55), which are human pulmonary epithelial cells endogenously expressing the CFTR channel. These cells are cultured under the same culture conditions as the CHO cells. The study of the mutated CFTR channel is carried out on JME/CF15 cells, which are epithelial cells extracted from respiratory airways of patients suffering from cystic fibrosis (homozygous ΔF508) (Jefferson et al., 1990). These cells therefore express the ΔF508 mutated CFTR channel. These cells are cultured under the same conditions as above, but the culture medium is supplemented with a hormone mixture containing: adenine (180 μM), insulin (5 μg/ml), transferrin (5 μg/ml), hydrocortisone (1.1 μM), triiodothyronine (2 nM), epinephrine (5.5 μM), epidermal growth factor (1.64 nM).
(§3) This technique makes it possible to follow the kinetics of exit of the ^125I radioactive iodide. The cells are cultured in 24-well plates with a dilution to 1/10 after passage. On the fourth day of culture, the drugs to be tested are dissolved in solution according to the desired concentration, at 37° C., in medium B, at pH 7.4, containing, in mM: 137 NaCl, 5.36 KCl, 0.8 mM MgCl2, 1.8 mM CaCl2, 5.5 glucose and 10 HEPES-NaOH. The wells are washed 4 times with 500 μl of medium B. The solution is subsequently replaced with 500 μl of loading solution containing 1 μM KI and 0.5 μCi of ^125INa/ml for 30 min. The kinetics of exit of ^125I are determined after having eliminated the loading solution and washed the wells 4 times with 500 μl of medium B. For the ^125I exit kinetics, 500 μl of medium B containing or not containing the molecules to be tested are incubated for 30 sec in the wells and recovered in a hemolysis tube, so as to be replaced with 500 μl of medium B containing or not containing the molecules to be tested. The operation is repeated every 30 s for 2 to 6 min. At the end of the efflux, the intracellular ions are extracted by adding 1 ml of trichloroacetic acid (7.5%) to the cell layer. All the samples are counted in a gamma counter (Kontron). The precipitated proteins are solubilized in 0.1N NaOH and quantified using a calorimetric test.
as §1, with “The concentration-response curves for agonists or for antagonists are smooth using the hyperbolic equation Y=Ymax*X/(EC5C+X), where Y is the response.” left out

[4] = biological target: T3, ΔF508 mutated CFTR channel (Homo sapiens, UniProt P13569, DEL508-508); assay: iodide efflux in JME/CF15 human bronchial epithelial cells from cystic fibrosis patients; assay type: cell-based; conditions: glibenclamide 100 μM, DIDS 500 μM
T3 construct: epithelial cells extracted from respiratory airways of patients suffering from cystic fibrosis (homozygous ΔF508); endogenous in cells; host or cells: JME/CF15 human airway epithelial cells (homozygous ΔF508)
T3 sequence (P13569 with tags, fused parts or gaps DEL508-508): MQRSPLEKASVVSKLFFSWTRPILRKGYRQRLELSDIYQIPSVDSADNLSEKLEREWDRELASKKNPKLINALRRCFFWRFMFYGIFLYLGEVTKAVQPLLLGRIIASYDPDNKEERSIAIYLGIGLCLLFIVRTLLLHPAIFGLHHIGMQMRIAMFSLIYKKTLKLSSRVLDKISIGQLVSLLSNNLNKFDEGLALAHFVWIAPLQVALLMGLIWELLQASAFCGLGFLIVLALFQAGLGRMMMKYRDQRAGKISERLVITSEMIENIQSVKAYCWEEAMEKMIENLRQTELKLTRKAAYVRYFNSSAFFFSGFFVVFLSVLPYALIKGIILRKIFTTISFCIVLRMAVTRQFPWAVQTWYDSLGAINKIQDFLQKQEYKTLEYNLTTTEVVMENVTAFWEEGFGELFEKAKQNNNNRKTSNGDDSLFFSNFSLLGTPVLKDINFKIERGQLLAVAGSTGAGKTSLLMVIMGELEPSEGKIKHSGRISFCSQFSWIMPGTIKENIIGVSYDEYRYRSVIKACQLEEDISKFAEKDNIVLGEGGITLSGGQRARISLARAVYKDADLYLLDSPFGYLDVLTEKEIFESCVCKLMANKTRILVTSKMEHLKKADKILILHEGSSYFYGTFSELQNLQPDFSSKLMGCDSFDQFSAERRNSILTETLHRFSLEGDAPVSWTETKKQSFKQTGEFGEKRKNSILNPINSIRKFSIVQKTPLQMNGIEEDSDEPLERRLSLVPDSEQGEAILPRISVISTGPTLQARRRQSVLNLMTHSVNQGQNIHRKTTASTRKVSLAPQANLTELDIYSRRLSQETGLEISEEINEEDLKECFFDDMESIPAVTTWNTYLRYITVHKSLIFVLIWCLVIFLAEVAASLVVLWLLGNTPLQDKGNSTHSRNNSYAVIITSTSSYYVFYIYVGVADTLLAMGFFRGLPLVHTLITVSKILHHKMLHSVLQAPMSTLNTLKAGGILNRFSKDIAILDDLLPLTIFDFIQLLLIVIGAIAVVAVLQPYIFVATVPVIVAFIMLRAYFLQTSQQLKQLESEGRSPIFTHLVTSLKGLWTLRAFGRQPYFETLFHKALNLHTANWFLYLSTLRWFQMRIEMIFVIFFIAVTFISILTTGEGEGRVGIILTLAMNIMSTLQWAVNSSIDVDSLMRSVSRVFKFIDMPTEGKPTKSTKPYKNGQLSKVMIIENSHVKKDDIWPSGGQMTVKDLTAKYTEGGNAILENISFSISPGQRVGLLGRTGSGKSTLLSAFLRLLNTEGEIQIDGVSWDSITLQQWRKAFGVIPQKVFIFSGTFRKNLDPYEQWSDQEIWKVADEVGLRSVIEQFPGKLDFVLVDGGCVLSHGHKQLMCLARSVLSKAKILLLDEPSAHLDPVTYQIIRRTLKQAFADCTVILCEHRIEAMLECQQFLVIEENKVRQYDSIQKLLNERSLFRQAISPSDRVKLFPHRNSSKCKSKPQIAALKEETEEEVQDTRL
Description: as §2, §3
as §1, with “The concentration-response curves for agonists or for antagonists are smooth using the hyperbolic equation Y=Ymax*X/(EC5C+X), where Y is the response.” left out

[5] = tested on: intracellular cAMP level; assay: total intracellular cAMP assay in CHO-CFTR(+) cells; assay type: cell-based, Chinese hamster; conditions: 5 min, FSK 1 or 5 μM, alcohols 1 mM
Description: The CHO cells are cultured for four days in a 24-well culture plate. On the fourth day of culture, each well is rinsed twice with 500 μl of medium B, and 500 μl of this buffer containing the molecule to be tested are added to each well. After incubation at 37° C. for 5 min, the reaction is stopped by adding a cell lysis buffer. The cell lysis is verified with Trypan blue. The amount of cAMP contained in the cells is determined using the Enzyme Immuno Assay kit (Amersham Biotechnology). The cAMP level is expressed in pmol/well ±SD.

[6] = biological target: T1, CFTR channel; assay: whole-cell patch-clamp in CHO-CFTR(+) cells; assay type: cell-based; parameters: expressed in transfected cells; host or cells: CHO (Chinese hamster ovary) cells, CHO-CFTR(+); conditions: glibenclamide 100 μM
Text: The patch-clamp technique consists in applying a glass pipette or a glass microelectrode to the surface of the cell. By applying slight touch, it is possible to cause the membrane to adhere to the glass. A small piece of membrane (patch) is thus isolated at the end of the pipette. This is the principle of patch-clamp (O. P. Hamill et al., Pflügers Arch., 1981, 391, 85-100; R. Penner, A Practical Guide to Patch Clamping, 1995, In Single Channel Recording, 2nd edition (Eds. B. Sakmann et al.) Plenum Press, New York, 3-30). To do this, the patch-clamp pipette must have a tip of the order of 1 μm in diameter and a resistance of the order of 1-5 MΩ. The resistance of a pipette or of a microelectrode makes it possible to assess the fineness of the tip: the greater the resistance, the finer the tip or the more the electrode is blocked. […] Interactions between the membrane and the glass will form, aided by a slight suction or negative pressure in the pipette. The quality of this interaction (or sealing) is also assessed by measuring the resistance between the glass and the membrane. To measure overall currents in the whole cell configuration, a sealing resistance of 1 GΩ is sufficient.
More specifically, culture dishes (cell support) are placed in an experimentation cell (volume 1 ml) on the platform of an inverted microscope (Nikon) equipped with phase-contrast lighting. The whole-cell configuration is used for recording the cell currents (Hamill et al., 1981). The experiments are carried out at ambient temperature (20-22° C.). The currents are amplified with an Axopatch 200B amplifier (Axon Instrument Ltd) having a 2-5 kHz low-pass filter (Bessel 6-pole filter), and recorded on the hard disk of a PC after digitization at 10-25 kHz. The pipettes are produced from glass tubes 1 mm in diameter (Clark Electromedical Instrument) in four steps with a horizontal drawing device (Bruwn Flaming 97, CA).
The pipettes, filled with an intracellular solution containing, in mM: 60 KCl; 80 NMDG ([…]); 10 HEPES; 5 EGTA; 1 CaCl2; 4 MgATP; 0.2 Na3GTP; pH 7.4, titrated with KOH), having a resistance of 5 MΩ. The potentials are expressed as the difference between the potential of the patch electrode and that of the bath. In the whole-cell configuration, they represent the membrane potential of the cell. The junction potentials that form between the recording electrode and the extracellular medium are eliminated before the contact of the electrode with the cell. […] The current-voltage relationships in the stationary state are determined using slow voltage ramps (20 mV/.s) under an imposed voltage condition. […]

activation of CFTR (125I efflux), in words ([1]; CHO-CFTR(+) cells): significantly activates the CFTR channel
Compound: CCCCCCCCCCO [decan-1-ol]
order of activation of CFTR by n-alkanols [1]: hexan-1-ol<heptan-1-ol<octan-1-ol<octan-2-ol<decan-1-ol

activation of CFTR (125I efflux), in words ([1]; CHO-CFTR(+) cells): do not activate the CFTR channel
Compound: CCO [ethanol, reference compound]
effect on intracellular cAMP level [5]: neither octan-1-ol, hexan-1-ol or ethanol modifies the basal cAMP level

activation of CFTR (125I efflux), in words ([1]; CHO-CFTR(+) cells): increase in activation of CFTR
Compound: CCCCCCCO [heptan-1-ol]
order of activation of CFTR by n-alkanols [1]: hexan-1-ol<heptan-1-ol<octan-1-ol<octan-2-ol<decan-1-ol

activation of CFTR (125I efflux), in words ([1]; CHO-CFTR(+) cells): significantly activates the CFTR channel
Compound: CCCCCCO [hexan-1-ol]
order of activation of CFTR by n-alkanols [1]: hexan-1-ol<heptan-1-ol<octan-1-ol<octan-2-ol<decan-1-ol
effect on intracellular cAMP level [5]: neither octan-1-ol, hexan-1-ol or ethanol modifies the basal cAMP level

activation of CFTR (125I efflux), in words ([1]; CHO-CFTR(+) cells): also activates the CFTR protein
Compound: CCCCCCC(C)O (stereo not drawn) [octan-2-ol]
order of activation of CFTR by n-alkanols [1]: hexan-1-ol<heptan-1-ol<octan-1-ol<octan-2-ol<decan-1-ol

activation of CFTR (125I efflux), in words ([1]; CHO-CFTR(+) cells, listed as butanol): do not activate the CFTR channel
Compound: butan-1-ol [reference compound]
activation of CFTR (125I efflux), in words ([1]; CHO-CFTR(+) cells): not significantly different from the unstimulated efflux

The remaining lines, values behind:

Compound: CNc1ccc2oc(C[C@H]3O[C@@]4(CC[C@H]3C)O[C@H]([C@H](C)C(=O)c3ccc[nH]3)[C@H](C)C[C@H]4C)nc2c1C(=O)O [A23187, reference compound]
activation of CFTR (125I efflux), in words ([1]; CHO-CFTR(+) cells): has no effect
effect on basal level of 125I efflux in cells not expressing CFTR [2]: has no effect

Compound: O=S(=O)(O)c1cc(N=C=S)ccc1C=Cc1ccc(N=C=S)cc1S(=O)(=O)O [DIDS, 4,4′-diisothiocyanatostilbene-2,2′-disulfonic acid, reference compound]
effect of inhibitor on octan-1-ol-activated efflux [3]: has no effect
effect of inhibitor on CFTR-ΔF508 activation by octan-1-ol [4]: insensitive

Compound: C=C[C@@]1(C)CC(=O)[C@]2(O)[C@@]3(C)[C@@H](O)CCC(C)(C)[C@@H]3[C@H](O)[C@H](OC(C)=O)[C@@]2(C)O1 [FSK, forskolin, reference compound]
EC50 ([1]; EC50 of activation of CFTR (125I efflux rate constant), CHO-CFTR(+) cells, FSK 0.1 to 5 μM): ~0.5 µM

Compound: O=S(=O)(NCCNC/C=C/c1ccc(Br)cc1)c1cccc2cnccc12 [H-89, reference compound]
effect of inhibitor on activated 125I efflux [1]: inhibited

Compound: COc1ccc(Cl)cc1C(=O)NCCc1ccc(S(=O)(=O)NC(=O)NC2CCCCC2)cc1 [glibenclamide, reference compound]
effect of inhibitor on activated 125I efflux [1]: completely inhibited
effect of glibenclamide on FSK- or octan-1-ol-induced current [6]: completely inhibited
effect of inhibitor on octan-1-ol-activated efflux [3]: strongly blocked
effect of inhibitor on CFTR-ΔF508 activation by octan-1-ol [4]: inhibited

Compound: CO [methanol, reference compound]
activation of CFTR (125I efflux), in words ([1]; CHO-CFTR(+) cells): not significantly different from the unstimulated efflux
